Molecules are shown by their SMILES. “Also recorded” adds a separate entry of the source. Read-outs that look alike come from different tables or passages of the source.

The values below come from patent US20170246130A1, “4-HYDROXYBENZOHYDARZIDE-A NEW CLASS OF ANGIOGENIC ENZYME THYMIDINE PHOSPHORYLASE INHIBITORS” (priority 2016, published 2017).

Test [1] concerns the target T1, thymidine phosphorylase (E. coli) (Escherichia coli, UniProt P07650).
T1 construct: purchased Sigma Aldrich, USA; host or cells: Escherichia coli
Nature of the test: In-vitro thymidine phosphorylase inhibition assay (spectrophotometric). It counts as biochemical. The note with it: recombinant E. coli TP, thymidine substrate, pH 7.0, 30° C., 290 nm; for IC50: read-out: IC50 (μM ± S.E.M.), thymidine phosphorylase inhibition. Here is the method: In vitro studies on thymidine phosphorylase were carried out in 96-well microtiter plate using Spectra Max-340 and Spectra Max-384 spectrophotometers (Molecular Devices, CA, USA). Deionized water used for buffer preparation was collected by Simplicity Water Purification System (Milipore).
Since human TP is not commercially available, we used commercially available recombinant E. coli TP (expressed in Escherichia coli) enzyme. Primary sequence of TP is mostly conserved throughout the evolution as mammalian TP share 39% sequence similarity with TP of E. coli. The mammalian enzyme also shared 65-70% similarity with the active site residues of E. coli TP enzyme (Bronckaers et al., 2009). Assay for thymidine phosphorylase inhibition was performed spectrophotometrically, following method of Bera et al. with some modifications (Bera et al., 2013).
The reaction catalyzed by thymidine phosphorylase involves reversible phosphorolysis of thymidine (FIG. 1), to thymine and 2-deoxyribose-1-phosphate (Bronckaers et al., 2009).
Reaction mixture contained 150 μL of potassium phosphate buffer (pH 7.0, 50 mM), 20 µL of enzyme (0.058 U/well) and 10 μL of test compound (0.5 mM in dimethylsulfoxide). The reaction mixture was incubated for 10 min at 30° C.
The enzyme inhibitory activities were calculated using the following formula:
Percent Inhibition=100−(O.D. of test/O.D. of control)×100
Where test is the enzyme activity with sample, and control is the enzyme activity without sample, and O.D. is optical density.
The IC50 of the compounds was calculated using EZ-Fit Enzyme Kinetic Program (Perrella Scientific Inc., Amhrest, U.S.A.).

For test [2], the system named is mouse fibroblast cell line (3T3). Put plainly: MTT anti-proliferative assay, 3T3 cells. The test is classed as cell-based. The note with it: for inhibition of the proliferation of 3T3 cells (in words): in comparison to cyclohexamide; for IC50 / IC50 ± SD (μM), 3T3 Cell Line: 3T3 cells; for IC50: read-out: IC50 ± SD (μM), 3T3 Cell Line. Here is the method:
(§1) Compounds found to be active in inhibiting thymidine phosphorylase were then subjected to MTT proliferation assay. Rapid proliferation is the property inherent to cancerous/tumor cells. This assay was carried out to study the effect of these compounds on proliferation of various cell lines. The cell lines which we targeted were mouse fibroblast cell line (3T3), and prostate cancer line (PC3).
(§2) Anti-proliferative activity of active compounds was evaluated by using the standard MTT (3-[4,5-dimethylthiazole-2-yl]-2,5-diphenyl-tetrazolium bromide) colorimetric assay in 96-well plate (Dimas et al., 1998).
(§3) It is a colorimetric assay that measures the reduction of MTT, by mitochondrial enzyme i.e. succinate dehydrogenase. The MTT enters into the mitochondria of cell, where it is reduced to an insoluble formazan salt (FIG. 8). The extent of MTT reduction was measured at 540 nm. As reduction of MTT can only occur in metabolically active cells, the level of activity is actually a measure of the viability of the cells (Vega-Avila and Pugsley, 2011).
(§4) Mouse fibroblast cell line 3T3 was cultured in DMEM, supplemented with 5% of FBS, 100 IU/mL of penicillin and 100 μg/mL of streptomycin, and kept at 37° C. in 5% CO2 incubator. For the preparation of cell culture, 100 μL/well of cell solution (5×10^4 cells/mL) was added into 96-well plate. The plate was incubated for overnight, and fresh medium was added after the removal of old medium. The test compounds were also added in different concentrations into the plate and plate was again incubated for 48 h. After the completion of this incubation period, 200 μL MTT (0.5 mg/mL) was added and plate was again incubated for 4 h, after this final incubation 100 μL of DMSO was added to each well. The level of MTT reduction to formazan was evaluated by change in absorbance at 540 nm using a micro plate reader (Spectra Max plus, Molecular Devices, CA, USA).
(Formazan colour is commonly taken as a measure of viable cells.)

Test [3] has as its system prostate cancer line (PC3). Nature of the test: MTT anti-proliferative assay, PC3 cells. The test is classed as cell-based. The note with it: for IC50: read-out: IC50 ± SD (μM), PC3 Cell Line; for inhibition of the proliferation of PC3 cancer cells (in words): in comparison of doxorubucin. On the procedure:
as §1, §2, §3, §4

T1 sequence (P07650 whole entry): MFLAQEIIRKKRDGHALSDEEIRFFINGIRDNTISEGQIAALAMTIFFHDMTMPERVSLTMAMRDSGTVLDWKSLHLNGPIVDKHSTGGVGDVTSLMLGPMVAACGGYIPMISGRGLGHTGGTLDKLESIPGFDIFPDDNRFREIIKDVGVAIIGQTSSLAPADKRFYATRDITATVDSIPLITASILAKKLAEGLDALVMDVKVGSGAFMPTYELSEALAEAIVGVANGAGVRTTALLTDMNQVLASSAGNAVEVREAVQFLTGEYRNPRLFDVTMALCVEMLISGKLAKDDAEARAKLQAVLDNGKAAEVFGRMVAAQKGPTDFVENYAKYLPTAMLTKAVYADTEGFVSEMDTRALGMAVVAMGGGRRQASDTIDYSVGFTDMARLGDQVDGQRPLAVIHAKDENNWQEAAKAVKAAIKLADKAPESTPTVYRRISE

For the compound `CN(C)c1ccc(/C=N/NC(=O)c2ccc(O)cc2)cc1` [Compound 17, 4-Hydroxy-N′-[(E)-[4-dimethylaminophenyl]methylidene]benzohydrazide], in test [1], the “IC50 (μM ± S.E.M.), thymidine phosphorylase inhibition” value is on record as “unable to inhibit the enzyme; also recorded: Inactive”.
By IC50 is commonly meant the concentration at which inhibition is half-maximal. Regarding `O=C(N/N=C/c1ccccc1O)c1ccc(O)cc1` [Compound 1, 4-Hydroxy-N′-[(E)-(2-hydroxyphenyl)methylidene]benzohydrazide], the IC50 stood at 189.1 ± 0.1 µM in test [1] and 7.58 ± 0.462 µM in test [3] (Homo sapiens, PC-3, PC3 cells). Moreover, in test [2], the “inhibition of the proliferation of 3T3 cells (in words)” value (from here on “inhibition … of 3T3 cells (in words)”) is “significantly inhibit”. Besides, the “inhibition of the proliferation of PC3 cancer cells (in words)” value (shortened to “inhibition … of PC3 cancer cells (in words)”) in test [3] is on record as “significantly inhibit”.
For `COc1cccc(/C(C)=N/NC(=O)c2ccc(O)cc2)c1O` [Compound 29, 4-Hydroxy-N′-[(E)-1-(2-hydroxy-3-methoxyphenyl)ethylidene]benzohydrazide], the IC50 in test [1] stood at 174.2 ± 1 µM; in test [2] (Mus musculus, NIH3T3, 48 h), 18.6 ± 0.6 µM; in test [3] (Homo sapiens, PC-3, PC3 cells), 8.48 ± 0.592 µM. Moreover, the “inhibition … of 3T3 cells (in words)” value in test [2] is given as “significantly inhibit”. Also, the “inhibition … of PC3 cancer cells (in words)” value in test [3] is listed as “significantly inhibit”.
Take `Cc1ccccc1/C=N/NC(=O)c1ccc(O)cc1` [Compound 16, 4-Hydroxy-N′-[(E)-(2-methylphenyl)methylidene]benzohydrazide]: the IC50 in test [1] was found to be 177.2 ± 0.5 µM. Also, in test [2] (48 h), the “IC50 ± SD (μM), 3T3 Cell Line” value is listed as “Inactive”. Besides, the “IC50 ± SD (μM), PC3 Cell Line” value in test [3] (PC3 cells) is given as “Inactive”.
`C/C(=N\NC(=O)c1ccc(O)cc1)c1ccc(O)cc1O` [Compound 26, 4-Hydroxy-N′-[(E)-1-(2,4-dihydroxyphenyl)ethylidene]benzohydrazide]: the “IC50 (μM ± S.E.M.), thymidine phosphorylase inhibition” value in test [1] is “Inactive”.
`COc1ccccc1/C=N/NC(=O)c1ccc(O)cc1` [Compound 9, 4-Hydroxy-N′-[(E)-(2-methoxyphenyl)methylidene]benzohydrazide]: the IC50 in test [1] was found to be 183.7 ± 1.5 µM. Besides, the “IC50 ± SD (μM), 3T3 Cell Line” value in test [2] (48 h) is reported as “Inactive”. Further, the “IC50 ± SD (μM), PC3 Cell Line” value in test [3] (PC3 cells) is “Inactive”.
Take `C/C(=N\NC(=O)c1ccc(O)cc1)c1cc(O)ccc1O` [Compound 28, 4-Hydroxy-N′-[(E)-1-(2,5-dihydroxyphenyl)ethylidene]benzohydrazide]: the IC50 in test [1] worked out at 183.4 ± 0.9 µM. For the same compound, in test [2], the “inhibition … of 3T3 cells (in words)” value is on record as “significantly inhibit”. In addition, in test [3] (PC3 cells), the “IC50 ± SD (μM), PC3 Cell Line” value is “Inactive”.
In the case of `O=C(N/N=C/c1cccc(Cl)c1)c1ccc(O)cc1` [Compound 13, 4-Hydroxy-N′-[(E)-(3-chlorophenyl)methylidene]benzohydrazide], the IC50 in test [1] is 160.3 ± 1 µM. Further, the “IC50 ± SD (μM), 3T3 Cell Line” value in test [2] (48 h) is given as “Inactive”. Besides, in test [3] (PC3 cells), the “IC50 ± SD (μM), PC3 Cell Line” value is “Inactive”.
Take `CCOc1cccc(/C=N/NC(=O)c2ccc(O)cc2)c1O` [Compound 21, 4-Hydroxy-N′-[(E)-(3-ethoxy-2-hydroxyphenyl)methylidene]benzohydrazide]: the IC50 in test [1] stood at 190.3 ± 0.4 µM; in test [3] (Homo sapiens, PC-3, PC3 cells) it was 6.54 ± 0.278 µM. Moreover, the “inhibition … of 3T3 cells (in words)” value in test [2] is listed as “significantly inhibit”. Besides, in test [3], the “inhibition … of PC3 cancer cells (in words)” value is listed as “significantly inhibit”.
For the compound `COc1ccc(/C=N/NC(=O)c2ccc(O)cc2)cc1` [Compound 10, 4-Hydroxy-N′-[(E)-(4-methoxyphenyl)methylidene]benzohydrazide], the IC50 in test [1] was determined as 186 ± 2 µM. Besides, the “IC50 ± SD (μM), 3T3 Cell Line” value in test [2] (48 h) is “Inactive”. Besides, the “IC50 ± SD (μM), PC3 Cell Line” value in test [3] (PC3 cells) was “Inactive”.
With `O=C(N/N=C/c1ccc(Cl)cc1Cl)c1ccc(O)cc1` [Compound 15, 4-Hydroxy-N′-[(E)-(2,4-dichlorophenyl)methylidene]benzohydrazide], the “IC50 (μM ± S.E.M.), thymidine phosphorylase inhibition” value in test [1] is listed as “Inactive”.
As for `COc1ccc(O)c(/C=N/NC(=O)c2ccc(O)cc2)c1` [Compound 20, 4-Hydroxy-N′-[(E)-(2-hydroxy-5-methoxyphenyl)methylidene]benzohydrazide], the IC50 in test [1] turned out to be 172 ± 2.7 µM; in test [3] (Homo sapiens, PC-3, PC3 cells), 10.5 ± 0.551 µM. Further, the “inhibition … of 3T3 cells (in words)” value in test [2] is given as “significantly inhibit”. For the same compound, in test [3], the “inhibition … of PC3 cancer cells (in words)” value is “significantly inhibit”.
For `O=C(N/N=C/c1cc(O)c(O)cc1O)c1ccc(O)cc1` [Compound 6, 4-Hydroxy-N′-[(E)-(2,4,5-trihydroxyphenyl)methylidene]benzohydrazide], the IC50 in test [1] amounted to 208 ± 0.9 µM. Further, in test [2], the “inhibition … of 3T3 cells (in words)” value was “significantly inhibit”. Also, the “IC50 ± SD (μM), PC3 Cell Line” value in test [3] (PC3 cells) is reported as “Inactive”.
As to `O=C(N/N=C/c1cc(Br)ccc1O)c1ccc(O)cc1` [Compound 22, 4-Hydroxy-N′-[(E)-(5-bromo-2-hydroxyphenyl)methylidene]benzohydrazide], in test [1], the “IC50 (μM ± S.E.M.), thymidine phosphorylase inhibition” value was “Inactive”.
For the compound `O=C(N/N=C/c1ccc(O)cc1)c1ccc(O)cc1` [Compound 3, 4-Hydroxy-N′-[(E)-(4-hydroxyphenyl)methylidene]benzohydrazide], the IC50 in test [1] is 199.4 ± 0.4 µM. The “IC50 ± SD (μM), 3T3 Cell Line” value in test [2] (48 h) is on record as “Inactive”. In addition, the “IC50 ± SD (μM), PC3 Cell Line” value in test [3] (PC3 cells) was “Inactive”.
On to `CSc1ccc(/C=N/NC(=O)c2ccc(O)cc2)cc1` [Compound 18], for which the “IC50 (μM ± S.E.M.), thymidine phosphorylase inhibition” value in test [1] is “unable to inhibit the enzyme; also recorded: Inactive”.
Turning to `O=C(N/N=C/c1cccc(O)c1)c1ccc(O)cc1` [Compound 2, 4-Hydroxy-N′-[(E)-(3-hydroxyphenyl)methylidene]benzohydrazide], the IC50 in test [1] was 180 ± 3 µM. Moreover, the “IC50 ± SD (μM), 3T3 Cell Line” value in test [2] (48 h) was “Inactive”. In test [3] (PC3 cells), the “IC50 ± SD (μM), PC3 Cell Line” value is “Inactive”.
For `O=C(N/N=C/c1c(O)cc(O)cc1O)c1ccc(O)cc1` [Compound 7, 4-Hydroxy-N′-[(E)-(2,4,6-trihydroxyphenyl)methylidene]benzohydrazide], the “IC50 (μM ± S.E.M.), thymidine phosphorylase inhibition” value in test [1] is “Inactive”.
Turning to `O=C(N/N=C/c1cc(Cl)ccc1O)c1ccc(O)cc1` [Compound 23, 4-Hydroxy-N′-[(E)-(5-chloro-2-hydroxyphenyl)methylidene]benzohydrazide], in test [1], the “IC50 (μM ± S.E.M.), thymidine phosphorylase inhibition” value is given as “Inactive”.
`COc1ccc(/C=N/NC(=O)c2ccc(O)cc2)cc1OC` [Compound 11, 4-Hydroxy-N′-[(E)-(3,4-dimethoxyphenyl)methylidene]benzohydrazide]: the IC50 in test [1] came out at 204 ± 3 µM. Moreover, the “IC50 ± SD (μM), 3T3 Cell Line” value in test [2] (48 h) is “Inactive”. The “IC50 ± SD (μM), PC3 Cell Line” value in test [3] (PC3 cells) was “Inactive”.
Take `C[C@@H]1C[C@@H]([C@H](O)CC2CC(=O)NC(=O)C2)C(=O)[C@@H](C)C1` [Cyclohexamide, reference compound]: the IC50 in test [2] (48 h) came out at 0.26 ± 0.1 µM.
For `O=C(N/N=C/c1ccc(O)c(O)c1O)c1ccc(O)cc1` [Compound 8, 4-Hydroxy-N′-[(E)-(2,3,4-trihydroxyphenyl)methylidene]benzohydrazide], the “IC50 (μM ± S.E.M.), thymidine phosphorylase inhibition” value in test [1] is on record as “Inactive”.
On the same count and under the same terms, the result for `C/C(=N\NC(=O)c1ccc(O)cc1)c1ccccc1O` [Compound 25, 4-Hydroxy-N′-[(E)-1-(2-Hydroxyphenyl)ethylidene]benzohydrazide] reads “Inactive”.
Turning to `COc1cccc2c1C(=O)c1c(O)c3c(c(O)c1C2=O)C[C@@](O)(C(=O)CO)C[C@@H]3O[C@H]1C[C@H](N)[C@H](O)[C@H](C)O1` [Doxorubucin, reference compound], in test [3] (PC3 cells), the IC50 was found to be 0.91 ± 0.1 µM.
